Assay results taken from patent US7078487B2, “PTH1R receptors” (The General Hospital Corporation, priority 1998, dated 2006).

Columns and labels:
zPTH3R [1] = assay: Total inositol phosphate accumulation, COS-7 cells expressing zPTH3R; type: cell-based, zebrafish; details: ligand 10^−6 M, 30 mM LiCl
Experimental: (§1) In order to determine total inositol phosphate turnover for COS-7 cells expressing zPTH1R, zPTH3R, and hPTH1R, cells were grown in 6-well plates with COS-7 cells (approximately 200,00 cells/well transfected with either 1 μg/well of zPTH1R, zPTH3R, or hPTH 1R (stina)). Cells were cultured for 3 days inDMEM/7% fetal bovine serum (FBS) at 37° C. with daily exchanges of medium. The cells were then preloaded with 3 μCi/ml myo-[^3H]inositol (New England Nuclear, Boston, Mass.) in inositol-free DMEM (Gibco)/7% FBS (33° C. for 18 hr). The following day, plates were rinsed and then incubated with 10^−6 M of either PTH, PTHrP in DMEM/0.1% BSA, or with DMEM/0.1% BSA alone (40 min at 37° C.), in the presence of 30 mM LiCl. Total inositol phosphate (IPs) were isolated by anion exchange column chromatography as previously described (Iida-Klein et al., (1994 and 1995)), and 1 ml of the eluate (⅛th of total) was counted in a liquid scintillation counter (model LS 60001C, Beckman, Fullerton, Calif.). All points represent mean±S.E.M. of two to three replicates from two or more independent experiments.

zPTH1R [2] = assay: Agonist-stimulated cAMP accumulation, COS-7 cells expressing zPTH1R; type: cell-based, zebrafish; details: for cAMP Maximum / EC50: intact COS-7 cells, room temperature
Experimental: (§2) Plasmid DNAs encoding the two full length ZPTH1Rs (#25 and #29) and the zPTH3R were transiently expressed in COS-7 cells. COS-7 African green monkey kidney cells (approximately 200,000 cells/well in a 24-well plate) were cultured and transfected with plasmid DNA (200 ng/well) as described (Rubin et al., (1998)). After transfection, cells were cultured for 72 hrs at 37° with daily exchanges of medium, followed by an additional 24 hrs at 33° (Gardella et al., (1997)) until they were functionally evaluated after 96 hrs.
(§3) In order to assess agonist-dependent cAMP accumulation of COS-7 cells expressing zPTH1R and zPTH3R, experiments were done in 24-well plates with COS-7 cells stimulated in the presence of increasing concentrations of either PTH or PTHrP, and intracellular cAMP was determined as described (Bergiwtz et al.,(1998)). EC50 values were determined as previously described (Gardella et al., (1996)).
(§4) Competitive binding and cAMP stimulation assays were performed at room temperature with intact COS-7 cells that expressed either the zPTH1R or the zPTH3R, as described in Materials and Methods. Homologous binding reactions utilized ^125I-rPTH with unlabeled rPTH, and ^125I-hPTHrP with unlabeled hPTHrP, heterologous binding reactions utilized ^125I-[…] with unlabeled rPTH. EC50 and IC50 values were determined as previously described (Gardella et al., 1996). Values are the mean±SEM of at least three independent transfections. ND, not determined.

zPTH3R [3] = assay: Agonist-stimulated cAMP accumulation, COS-7 cells expressing zPTH3R; type: cell-based, zebrafish
Experimental: as §2, §3, §4

zPTH1R [4] = assay: Total inositol phosphate accumulation, COS-7 cells expressing zPTH1R; type: cell-based, zebrafish; details: ligand 10^−6 M, 30 mM LiCl
Experimental: as §1

zPTH3R [5] = assay: Competitive radioligand binding, COS-7 cells expressing zPTH3R; design: species or system zebrafish
Experimental: as §2
Radioligand studies with COS-7 cells expressing either zPTH1R or zPTH3R were performed as described using either ^125I-labeled [Nle^8,21,Tyr^34]rPTH-(1–34)amide (rPTH) (SEQ ID NO:22) or ^125I-labeled [Tyr^36]hPTHrP-(1–36)amide (PTHrP) (SEQ ID NO:23), and increasing concentrations of either [Tyr^34]hPTH(1–34)amide (PTH) (SEQ ID NO:24), or [Tyr36]hPTHrP(1–36)amide (PTHrP) (SEQ ID NO:25) (Bergwitz et al., (1997)). […] Specific binding was calculated by subtracting radioligand binding in the presence of excess unlabeled peptide from the total binding. […]
Competitive binding and cAMP stimulation assays were performed at room temperature with intact COS-7 cells that expressed either the zPTH1R or the zPTH3R, as described in Materials and Methods. […] EC50 and IC50 values were determined as previously described (Gardella et al., 1996). […] ND, not determined.

[6] = zPPR3, intact COS-7 cells, room temperature

zPTH3R, sequence (as listed by the source): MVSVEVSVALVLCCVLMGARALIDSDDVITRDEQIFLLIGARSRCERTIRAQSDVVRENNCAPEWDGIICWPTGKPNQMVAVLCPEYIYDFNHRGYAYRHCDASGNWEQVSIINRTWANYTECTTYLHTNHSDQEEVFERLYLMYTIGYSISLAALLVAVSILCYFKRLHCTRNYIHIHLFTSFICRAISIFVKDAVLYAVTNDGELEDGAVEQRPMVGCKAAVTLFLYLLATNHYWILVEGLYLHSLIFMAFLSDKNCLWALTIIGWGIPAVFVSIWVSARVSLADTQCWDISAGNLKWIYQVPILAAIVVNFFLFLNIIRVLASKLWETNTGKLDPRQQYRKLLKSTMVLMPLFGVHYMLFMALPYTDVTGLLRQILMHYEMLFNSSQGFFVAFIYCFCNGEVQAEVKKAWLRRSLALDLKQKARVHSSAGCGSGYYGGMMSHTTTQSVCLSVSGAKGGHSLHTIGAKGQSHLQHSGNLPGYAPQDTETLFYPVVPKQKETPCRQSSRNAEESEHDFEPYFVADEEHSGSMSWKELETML
zPTH1R, sequence (as listed by the source): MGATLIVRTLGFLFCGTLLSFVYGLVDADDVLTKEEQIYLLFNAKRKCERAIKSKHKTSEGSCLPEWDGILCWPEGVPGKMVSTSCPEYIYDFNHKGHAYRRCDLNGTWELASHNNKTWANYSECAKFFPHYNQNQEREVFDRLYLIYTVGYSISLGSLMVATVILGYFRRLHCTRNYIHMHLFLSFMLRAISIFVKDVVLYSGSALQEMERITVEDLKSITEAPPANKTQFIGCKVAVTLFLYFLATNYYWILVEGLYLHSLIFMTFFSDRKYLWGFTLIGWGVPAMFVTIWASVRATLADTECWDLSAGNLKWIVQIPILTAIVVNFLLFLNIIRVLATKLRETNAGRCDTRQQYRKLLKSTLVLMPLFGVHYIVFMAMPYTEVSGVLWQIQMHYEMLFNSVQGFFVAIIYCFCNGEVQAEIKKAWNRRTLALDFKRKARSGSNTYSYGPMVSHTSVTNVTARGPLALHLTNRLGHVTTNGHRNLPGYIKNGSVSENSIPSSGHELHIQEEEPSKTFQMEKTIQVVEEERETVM

Substance	IP accumulation (zPTH3R [1])	cAMP Maximum (zPTH1R [2]; zPPR1#25)	EC50 (zPTH1R [2]; zPPR1#29)	cAMP Maximum (zPTH1R [2]; zPPR1#29)	maximal cAMP accumulation (zPTH1R [2]; zPTH1R#25, COS-7 cells)	maximal cAMP accumulation (zPTH1R [2]; zPTH1R#29, COS-7 cells)	EC50 (zPTH3R [3]; [6])	maximal cAMP accumulation (zPTH3R [3]; [6])	maximal cAMP accumulation (zPTH3R [3]; zPTH3R, COS-7 cells)	increase of IP accumulation (zPTH1R [4])	EC50 (zPTH1R [2]; zPPR1#25)	IC50 (zPTH3R [5]; [6])	Kd (zPTH3R [5]; zPTH3R, COS-7 cells, read-out: apparent Kd)	cAMP activation at low concentration (zPTH3R [3]; zPTH3R, COS-7 cells, 10^−11 M)
AVAEIQLMHNLGKHLNSMERVEWLRKKLQDVHDY [hPTH, [Tyr^34]hPTH(1–34)amide]	no IP accumulation was detectable	90.4 ± 11.4 pmol/well	800 ± 30 pM	106.2 ± 4.8 pmol/well	90.4 pmole/well	106.2 pmole/well	5980 ± 240 pM	227.4 ± 41.6 pmol/well	285 pmol/well	2 fold				
[Tyr36]hPTHrP(1–36)amide	no IP accumulation was detectable	92.4 ± 8.00 pmol/well	300 ± 40 pM	101.6 ± 3.6 pmol/well	92.4 pmole/well	101.6 pmole/well	490 ± 170 pM	285.4 ± 3.4 pmol/well	227 pmol/well	2 fold	900 ± 90 pM	~3000 pM	~3000 pM	significant activation
